From patent publication US10906904B2, “ADO-resistant cysteamine analogs and uses thereof” (HORIZON ORPHAN LLC, priority 2015, dated 2021)
Like-named read-outs stand apart in the source and are kept apart here.

How the values were obtained:
[1] = in vitro; details: rat
Method: Rat hepatocytes were used to model in vivo hepatic clearance of the compounds by the ADO enzyme. Briefly, a Hepatocyte Stability Assay was carried out using cryopreserved rat hepatocytes.

[2] = system: cystinotic human fibroblasts; assay: Cystine depletion assay; format: cell-based; details: for cystine depletion levels (in words): compared to cysteamine; for Cystine depletion: compound at 50 μM or 100 μM, Tables 1-3
How it was run: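 Cystinotic human fibroblasts treated with compound at 50 μM or 100 μM for 60 min at 37° C. After homogenisation and acid protein precipitation, cystine measured by HILIC LC-MS/MS and normalised to protein. Depletion expressed as percent of that achieved by cysteamine at similar concentration.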

[3] = Cystine reactivity assay; design: Cystine Reactivity: unit not given here; details: for Cystine Reactivity: Tables 1-3; for reactivity with cystine compared to cysteamine (in words): text summary of Tables 1-3
How it was run: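 3 mM test compound incubated with 100 nM BODIPY FL L-cystine in phosphate buffer, pH 7.4, 30 °C; S–S cleavage relieves quenching, raising fluorescence. Rate taken as slope (RFU/min) of linear fit over time, expressed as percentage of 3 mM cysteamine.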

[4] = in vivo; details: mouse, 10 mg
Method: (§1) Pharmacokinetic parameters of a test compound in a rodent species (mouse and/or rat) were determined by administering a test compound at 2 and 10 mg free base equivalents per kg via the intravenous and oral gavage route to groups of three animals per route.
(§2) Blood samples were taken at various times after administration, plasma prepared, and submitted to analysis for parent drug using a qualified LC-MS-MS assay. Pharmacokinetics parameters derived from the plasma analytical data were determined using non-compartmental analysis.

[5] = molecular target: T1, human recombinant ADO (Homo sapiens, UniProt Q96SZ5); format: in vitro ADME
T1 sequence (Q96SZ5 1-270): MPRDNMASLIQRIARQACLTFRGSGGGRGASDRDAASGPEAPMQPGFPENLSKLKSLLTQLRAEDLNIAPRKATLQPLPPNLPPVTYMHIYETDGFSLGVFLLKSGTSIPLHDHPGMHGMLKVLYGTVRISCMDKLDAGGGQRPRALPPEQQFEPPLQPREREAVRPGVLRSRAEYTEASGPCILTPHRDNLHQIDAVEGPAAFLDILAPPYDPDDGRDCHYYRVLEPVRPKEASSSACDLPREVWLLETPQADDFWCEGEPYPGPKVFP
How it was run: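 Test compound (15 mM) incubated with 60 μg/ml human recombinant ADO and 20 nM O2-sensitive fluorescent probe at 37 °C in sealed chamber. Initial rate of fluorescence increase (ex 380/em 650 nm) gave oxygen consumption, expressed relative to 15 mM cysteamine.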

[6] = Rodent pharmacokinetic assay (mouse); details: plasma, 10 mg
Method: as §1, §2

[7] = Rodent pharmacokinetic assay (rat); format: in vivo; details: plasma, 2 and 10 mg free base equivalents per kg, intravenous and oral gavage
Method: as §1, §2

Structure (SMILES)	microsomal CLint ([1]; hepatocytes)	cystine depletion levels (in words) [2]	Cystine depletion [2]	Cystine Reactivity [3]	reactivity with cystine compared to cysteamine (in words) [3]	bioavailability [4]	half-life [4]	ADO metabolism ([5]; relative to 15 mM cysteamine, Tables 1-3)	metabolism by ADO compared to cysteamine (in words) ([5]; text summary of Tables 1-3)	half-life [6]	bioavailability ([6]; oral)	bioavailability ([7]; read-out: Rat PK Bioavailability)	half-life ([7]; read-out: Rat PK-Half life (converted))	microsomal CLint at 3 μM ([1]; cryopreserved rat hepatocytes)	metabolism by ADO compared to cysteamine (in words) [5]	ADO metabolism ([5]; human, 15 mM)
SCCN1CCCC1 [Compound 2b]	15700 µL/min/mg	similar	99%	12392	increased reactivity with cystine compared to cysteamine	33%	0.4 h	4%	significantly reduced metabolism by ADO compared to cysteamine	–	–	–	–	–	–	–
CN1CCC(S)CC1 [Compound 2d]	–	slightly decreased	79%	7332	increased reactivity with cystine compared to cysteamine	–	–	–	–	3.9 h	38%	34%	2.3 h	12600 µL/min/mg	significantly reduced metabolism by ADO compared to cysteamine	1%
